{
  "source": "paper PMC6720883",
  "about": "“In Vitro Inhibitory Effects of APINACA on Human Major Cytochrome P450, UDP-Glucuronosyltransferase Enzymes, and Drug Transporters” (Molecules, 2019)",
  "key": {"[1]": {"molecular_target": "CYP1A2 (Homo sapiens, UniProt P05177)", "sequence (P05177 whole entry)": "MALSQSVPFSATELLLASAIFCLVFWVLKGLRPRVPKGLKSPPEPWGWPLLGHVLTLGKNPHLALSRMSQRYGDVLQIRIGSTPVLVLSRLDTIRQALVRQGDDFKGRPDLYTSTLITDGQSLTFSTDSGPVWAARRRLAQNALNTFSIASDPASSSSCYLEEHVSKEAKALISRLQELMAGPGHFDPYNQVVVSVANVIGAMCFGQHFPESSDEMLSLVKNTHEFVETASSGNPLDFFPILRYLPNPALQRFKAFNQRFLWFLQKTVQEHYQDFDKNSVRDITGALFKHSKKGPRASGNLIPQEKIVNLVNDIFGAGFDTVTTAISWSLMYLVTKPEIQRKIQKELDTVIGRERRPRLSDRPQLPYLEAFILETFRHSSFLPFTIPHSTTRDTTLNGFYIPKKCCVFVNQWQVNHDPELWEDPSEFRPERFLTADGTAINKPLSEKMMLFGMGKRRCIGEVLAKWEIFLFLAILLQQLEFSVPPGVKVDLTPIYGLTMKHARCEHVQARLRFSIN", "test": "Inhibition of CYP1A2-mediated phenacetin O-deethylase in ultrapooled human liver microsomes (cocktail, LC-MS/MS)", "assay_type": "in vitro ADME", "method": "The inhibitory potentials (IC50 values) of APINACA and typical CYP inhibitors on CYP 1A2, 2A6, 2C8, 2C9, 2C19, 2D6, and 3A4 activities in pooled human liver microsomes were evaluated following our previous method using a cocktail of CYP substrates, followed by LC–MS/MS [43]. […] After 3 min of preincubation at 37 °C, the reaction mixtures were incubated for 15 min at 37 °C with the addition of NADPH in a shaking water bath. The reaction was stopped by adding 100 μL of ice cold methanol containing internal standards (d9-1′-hydroxybufuralol for 1′-hydroxybufuralol, 4′-hydroxydiclofenac, 7-hydroxycoumarin, 1′-hydroxymidazolam, and 4′-hydroxymephenytoin; ^13C2, ^15N-acetaminophen for acetaminophen and N-desethylamodiaquine). The incubation mixtures were centrifuged at 13,000× g for 8 min at 4 °C, and 50 μL of each supernatant was diluted with 50 μL of water. Aliquots (5 μL) of the diluted supernatants were analyzed by LC–MS/MS. All assays were performed in triplicate, and the average values were used for subsequent calculations.\nTo measure the time-dependent inhibition, human liver microsomes were preincubated with the various concentrations of APINACA (final concentrations of 0.1−100 μM) and NADPH for 30 min at 37 °C. Next, the reaction mixtures were incubated with a seven-CYP probe substrate cocktail or bupropion for 15 min at 37 °C. […]"}, "[2]": {"molecular_target": "CYP2C9 (Homo sapiens, UniProt P11712)", "sequence (P11712 whole entry)": "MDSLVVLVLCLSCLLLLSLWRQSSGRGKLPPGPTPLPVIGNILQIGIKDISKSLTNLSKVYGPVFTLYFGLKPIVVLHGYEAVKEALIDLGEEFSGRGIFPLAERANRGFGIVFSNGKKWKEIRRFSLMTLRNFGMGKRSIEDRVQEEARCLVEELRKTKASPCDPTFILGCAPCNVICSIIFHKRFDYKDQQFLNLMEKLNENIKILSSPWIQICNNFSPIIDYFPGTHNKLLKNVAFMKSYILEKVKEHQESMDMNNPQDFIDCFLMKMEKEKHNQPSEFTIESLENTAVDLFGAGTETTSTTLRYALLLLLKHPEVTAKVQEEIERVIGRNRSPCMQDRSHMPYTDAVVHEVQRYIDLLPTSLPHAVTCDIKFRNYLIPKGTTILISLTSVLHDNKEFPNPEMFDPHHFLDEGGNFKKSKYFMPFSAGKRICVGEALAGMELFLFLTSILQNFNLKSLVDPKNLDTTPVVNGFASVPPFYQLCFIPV", "test": "Inhibition of CYP2C9-catalyzed diclofenac 4′-hydroxylase in ultrapooled human liver microsomes", "assay_type": "in vitro ADME", "conditions": "CYP2C9 diclofenac 4′-hydroxylase", "method": "The inhibitory potentials (IC50 values) of APINACA and typical CYP inhibitors on CYP 1A2, 2A6, 2C8, 2C9, 2C19, 2D6, and 3A4 activities in pooled human liver microsomes were evaluated following our previous method using a cocktail of CYP substrates, followed by LC–MS/MS [43]. […]. After 3 min of preincubation at 37 °C, the reaction mixtures were incubated for 15 min at 37 °C with the addition of NADPH in a shaking water bath. The reaction was stopped by adding 100 μL of ice cold methanol containing internal standards (d9-1′-hydroxybufuralol for 1′-hydroxybufuralol, 4′-hydroxydiclofenac, 7-hydroxycoumarin, 1′-hydroxymidazolam, and 4′-hydroxymephenytoin; ^13C2, ^15N-acetaminophen for acetaminophen and N-desethylamodiaquine). […] Aliquots (5 μL) of the diluted supernatants were analyzed by LC–MS/MS.\nNext, the reaction mixtures were incubated with a seven-CYP probe substrate cocktail or bupropion for 15 min at 37 °C.\nThe LC-MS/MS system was comprised of an Agilent 6495 triple quadrupole mass spectrometer coupled with an Agilent 1290 Infinity system (Agilent Technologies, CA, USA). The column and autosampler temperatures were 40 °C and 4 °C, respectively.\nThe data were processed using Mass Hunter software (Agilent Technologies).\n(§1) 12.5 (Systat Software, Inc.; San Jose, CA, USA). […] 1.1 (Systat Software, Inc.)."}, "[3]": {"molecular_target": "UGT1A6 (Homo sapiens, UniProt P19224)", "sequence (P19224 27-532)": "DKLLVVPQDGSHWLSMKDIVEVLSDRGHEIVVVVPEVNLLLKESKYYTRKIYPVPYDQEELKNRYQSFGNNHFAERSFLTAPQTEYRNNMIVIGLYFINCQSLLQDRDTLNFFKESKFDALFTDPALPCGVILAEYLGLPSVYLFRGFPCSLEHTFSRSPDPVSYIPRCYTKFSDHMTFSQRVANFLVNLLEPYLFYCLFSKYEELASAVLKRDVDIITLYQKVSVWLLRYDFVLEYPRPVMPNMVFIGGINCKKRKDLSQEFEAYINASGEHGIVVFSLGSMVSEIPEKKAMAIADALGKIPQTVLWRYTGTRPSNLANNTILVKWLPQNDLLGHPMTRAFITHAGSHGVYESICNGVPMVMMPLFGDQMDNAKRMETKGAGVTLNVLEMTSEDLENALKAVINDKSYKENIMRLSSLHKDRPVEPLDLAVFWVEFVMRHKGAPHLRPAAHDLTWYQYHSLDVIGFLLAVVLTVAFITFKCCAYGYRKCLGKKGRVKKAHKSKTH", "test": "Inhibition of UGT1A6-catalyzed N-acetylserotonin glucuronidation in human liver microsomes", "method": "The inhibitory effect of APINACA and typical UGT inhibitors on UGT1A1, UGT1A3, UGT1A4, UGT1A6, UGT1A9, and UGT2B7 were evaluated following our previous method by LC–MS/MS after incubation of ultrapooled human liver microsomes with a cocktail of UGT substrates. […] The reactions were initiated by adding UDPGA, and the incubation continued for 60 min at 37 °C in a shaking water bath. The reactions were terminated by adding 50 μL of ice-cold acetonitrile containing internal standards (propofol glucuronide for chenodeoxycholic acid 24-acyl-β-glucuronide and mycophenolic acid glucuronide; and meloxicam for SN-38 glucuronide, trifluoperazine glucuronide, N-acetylserotonin β-D-glucuronide, and naloxone 3-β-D-glucuronide). The incubation mixtures were centrifuged at 13,000× g for 8 min at 4 °C. Next, 50 μL of each supernatant of A and B set was mixed, and aliquots (5 μL) were analyzed by LC–MS/MS. All assays were performed in triplicate, and the average values were used in calculations.\nTo measure the time-dependent inhibition, human liver microsomes were preincubated with the various concentrations of APINACA (final concentrations of 0.1–100 μM) and UDPGA for 30 min at 37 °C. Next, the reaction mixtures were incubated with UGT probe substrate cocktail sets for 60 min at 37 °C. The control reaction was performed by adding methanol instead of the test compounds.\n1.1 (Systat Software, Inc.)."}, "[4]": {"molecular_target": "T1, OCT2 (Homo sapiens, UniProt O15244)", "T1 construct": "host or cells: HEK293 (transient overexpression)", "T1 sequence (O15244 1-555)": "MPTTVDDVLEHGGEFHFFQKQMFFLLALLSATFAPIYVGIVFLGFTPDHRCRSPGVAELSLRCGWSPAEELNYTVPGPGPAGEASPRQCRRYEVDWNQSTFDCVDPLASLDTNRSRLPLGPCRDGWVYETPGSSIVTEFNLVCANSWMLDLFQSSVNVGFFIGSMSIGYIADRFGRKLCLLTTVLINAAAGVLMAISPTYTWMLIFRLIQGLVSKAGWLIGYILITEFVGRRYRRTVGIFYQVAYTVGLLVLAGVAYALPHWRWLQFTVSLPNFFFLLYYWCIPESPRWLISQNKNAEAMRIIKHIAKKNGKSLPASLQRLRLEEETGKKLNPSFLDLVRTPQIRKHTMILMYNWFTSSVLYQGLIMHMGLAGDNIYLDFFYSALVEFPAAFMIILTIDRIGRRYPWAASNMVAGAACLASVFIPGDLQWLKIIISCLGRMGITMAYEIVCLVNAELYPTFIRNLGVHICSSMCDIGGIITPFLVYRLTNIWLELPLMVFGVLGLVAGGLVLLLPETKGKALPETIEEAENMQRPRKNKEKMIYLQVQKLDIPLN", "test": "Uptake of [3-H]methyl-4-phenylpyridinium in HEK293-OCT2 cells", "assay_type": "in vitro ADME", "method": "To examine the effects of APINACA and typical inhibitors on transporter activity, the uptake of a probe substrate into HEK293 cells overexpressing the respective solute carrier transporters was measured in the presence of APINACA (final concentrations of 0–250 μM) or typical inhibitors for 5 min. The concentrations and probe substrates were selected as follows: 0.1 μM [3-H]MPP^+ (for OCT1 and OCT2), 0.1 μM [3-H]PAH (for OAT1), 0.1 μM [3-H]ES (for OAT3 and OATP1B1), and 0.1 μM [3-H]EG (for OATP1B3).\nas §1"}, "[5]": {"molecular_target": "OAT1 (Homo sapiens, UniProt Q4U2R8)", "sequence (Q4U2R8 whole entry)": "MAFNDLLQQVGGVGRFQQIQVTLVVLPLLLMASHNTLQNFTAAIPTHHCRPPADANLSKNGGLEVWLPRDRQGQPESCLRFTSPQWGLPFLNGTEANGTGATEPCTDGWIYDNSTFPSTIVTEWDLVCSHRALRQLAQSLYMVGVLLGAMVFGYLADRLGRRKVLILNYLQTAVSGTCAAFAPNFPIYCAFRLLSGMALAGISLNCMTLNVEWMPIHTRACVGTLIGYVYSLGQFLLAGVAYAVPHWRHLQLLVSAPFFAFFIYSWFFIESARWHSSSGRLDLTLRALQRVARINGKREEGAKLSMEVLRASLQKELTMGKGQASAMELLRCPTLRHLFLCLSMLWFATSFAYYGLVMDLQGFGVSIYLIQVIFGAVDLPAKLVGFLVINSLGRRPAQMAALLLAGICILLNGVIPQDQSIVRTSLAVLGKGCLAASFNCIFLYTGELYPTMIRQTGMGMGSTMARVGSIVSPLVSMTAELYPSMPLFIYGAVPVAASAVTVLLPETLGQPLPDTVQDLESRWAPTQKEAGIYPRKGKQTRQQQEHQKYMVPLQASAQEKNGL", "test": "Uptake of [3-H]para-aminohippuric acid in HEK293-OAT1 cells"}},
  "note": "pIC50: −log10 of the molar value. Read-outs that look alike come from different tables or passages of the source.",
  "data": [
    {"compound": "CCCCCn1nc(C(=O)NC23CC4CC(CC(C4)C2)C3)c2ccccc21", "note": "[APINACA, N-(1-adamantyl)-1-pentyl-1H-indazole-3-carboxamide]", "values": [
      {"measurement": "pIC50", "setting": "[1]", "value": "< 4.00"},
      {"measurement": "IC50", "setting": "[1]; read-out: IC50 (μM) With Preincubation, CYP1A2 phenacetin O-deethylase, ultrapooled human liver microsomes, 30-min preincubation with NADPH", "value": "> 100", "unit": "µM"},
      {"measurement": "IC50", "setting": "[2]; IC50 (μM) No Preincubation, 10 μM diclofenac, no preincubation", "value": "> 100", "unit": "µM"},
      {"measurement": "IC50", "setting": "[2]; IC50 (μM) With Preincubation, 30-min preincubation with NADPH", "value": 85, "unit": "µM"},
      {"measurement": "IC50 at 15 min", "setting": "[2]; human, microsomes, pH 7.4, IC50 (μM) With Preincubation, 30-min preincubation with NADPH", "value": "> 100", "unit": "µM"},
      {"measurement": "pIC50", "setting": "[3]", "value": "< 4.00"},
      {"measurement": "pIC50", "setting": "[3]; read-out: IC50 UGT1A6 N-acetylserotonin glucuronidation, with 30-min preincubation, pooled human liver microsomes, 30-min preincubation with UDPGA (○)", "value": "< 4.00"},
      {"measurement": "pIC50", "setting": "[4]", "value": "< 3.60"},
      {"measurement": "pIC50", "setting": "[5]", "value": "< 3.60"}
    ]}
  ]
}
